Results: publication PMC12655172, “Borylated 5-Membered Ring Iminosugars: Synthesis and Biological Evaluation for Glycosidase Inhibition and Anticancer Properties for Application in Boron Neutron Capture Therapy (BNCT)—Part 2” (Pharmaceuticals, 2025)

Assays:
[1] = tested on: T1, amyloglucosidase (A. niger); test: Glycosidase inhibition (Table 2 panel); format: biochemical
T1 construct: purchased Sigma-Aldrich
Procedure, shortened: (§1)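 Each enzyme was run with the matching para-nitrophenyl glycoside […] at its optimum pH, […]. Reactions were stopped with Na2CO3 […], and released para-nitrophenol was read at 400 nm.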

[2] = molecular target: T2, α-D-glucosidase (yeast) (Saccharomyces cerevisiae, UniProt P53341); test: Glycosidase inhibition (Table 2 panel); format: biochemical
T2 construct: purchased Sigma-Aldrich
T2 sequence (P53341 whole entry): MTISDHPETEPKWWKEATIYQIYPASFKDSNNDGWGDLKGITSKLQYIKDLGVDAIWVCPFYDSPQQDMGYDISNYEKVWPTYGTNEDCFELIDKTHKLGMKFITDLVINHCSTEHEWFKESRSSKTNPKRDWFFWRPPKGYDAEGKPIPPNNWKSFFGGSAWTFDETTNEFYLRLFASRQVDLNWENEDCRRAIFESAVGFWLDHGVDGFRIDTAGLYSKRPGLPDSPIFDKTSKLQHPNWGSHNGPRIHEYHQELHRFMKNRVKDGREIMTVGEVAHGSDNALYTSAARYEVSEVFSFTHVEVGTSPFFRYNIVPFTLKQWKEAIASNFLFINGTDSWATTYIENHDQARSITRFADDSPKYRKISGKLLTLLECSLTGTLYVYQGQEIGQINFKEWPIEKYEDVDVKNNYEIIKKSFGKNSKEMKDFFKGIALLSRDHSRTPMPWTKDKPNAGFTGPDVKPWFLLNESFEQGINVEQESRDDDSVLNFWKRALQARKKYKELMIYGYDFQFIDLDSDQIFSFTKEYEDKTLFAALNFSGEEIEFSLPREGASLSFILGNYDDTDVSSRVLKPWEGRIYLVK
Procedure, shortened: as §1

[3] = tested on: T3, β-D-glucuronidase (E. coli); test: Glycosidase inhibition (Table 2 panel); format: biochemical
T3 construct: purchased Sigma-Aldrich
Procedure, shortened: as §1

[4] = molecular target: T2, α-D-glucosidase (yeast); test: Glycosidase inhibition (Table 3 panel); format: biochemical; conditions: 1 mg/mL aqueous solution; run in water
Procedure, shortened: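 Run at 27 °C in citric acid (0.1 M)/disodium hydrogen phosphate (0.2 M) buffer at the enzyme's optimum pH, with […] para-nitrophenyl substrate solution and extract at 1 mg/mL (solution concentration). Values are means of triplicate determinations.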

[5] = tested on: α-D-glucosidase (rat intestinal maltase); test: Glycosidase inhibition (Table 2 panel); format: biochemical
[6] = tested on: T4, α-D-mannosidase (Jack bean); test: Glycosidase inhibition (Table 2 panel); format: biochemical
T4 construct: purchased Sigma-Aldrich; host or cells: Jack bean
Procedure, shortened: (§2)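 pNP-glycoside substrate […], optimum pH per enzyme, […]; quench Na2CO3 […]; A400 for liberated p-nitrophenol.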

[7] = molecular target: α-D-glucosidase (rice) (Oryza sativa subsp. japonica, UniProt Q653V7); test: Glycosidase inhibition (Table 2 panel); format: biochemical
α-D-glucosidase (rice), sequence (Q653V7 34-885): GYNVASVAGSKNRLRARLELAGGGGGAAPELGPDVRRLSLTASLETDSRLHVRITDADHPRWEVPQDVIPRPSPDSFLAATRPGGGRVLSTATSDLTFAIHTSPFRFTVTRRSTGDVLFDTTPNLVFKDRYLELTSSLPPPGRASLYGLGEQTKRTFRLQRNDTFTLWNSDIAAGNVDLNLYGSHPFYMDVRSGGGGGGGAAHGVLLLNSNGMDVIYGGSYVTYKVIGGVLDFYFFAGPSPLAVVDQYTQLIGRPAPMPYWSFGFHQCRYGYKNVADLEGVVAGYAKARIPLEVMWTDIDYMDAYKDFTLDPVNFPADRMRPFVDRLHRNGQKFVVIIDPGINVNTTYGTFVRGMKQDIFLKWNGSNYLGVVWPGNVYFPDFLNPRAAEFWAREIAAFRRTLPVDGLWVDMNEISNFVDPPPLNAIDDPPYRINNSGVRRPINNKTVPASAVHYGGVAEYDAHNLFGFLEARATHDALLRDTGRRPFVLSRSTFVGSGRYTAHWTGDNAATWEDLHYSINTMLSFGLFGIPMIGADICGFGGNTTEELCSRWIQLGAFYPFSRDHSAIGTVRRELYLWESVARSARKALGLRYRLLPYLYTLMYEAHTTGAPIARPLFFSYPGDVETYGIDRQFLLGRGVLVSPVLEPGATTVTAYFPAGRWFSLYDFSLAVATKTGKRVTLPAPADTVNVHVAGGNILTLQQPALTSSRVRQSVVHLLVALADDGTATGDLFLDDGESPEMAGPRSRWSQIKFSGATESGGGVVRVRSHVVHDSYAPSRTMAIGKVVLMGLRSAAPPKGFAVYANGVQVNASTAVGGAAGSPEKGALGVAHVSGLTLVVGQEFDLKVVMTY

[8] = tested on: T5, trehalase (porcine kidney); test: Glycosidase inhibition (Table 2 panel); format: biochemical
T5 construct: purchased Sigma-Aldrich; host or cells: porcine kidney

[9] = tested on: β-D-mannosidase (snail); test: Glycosidase inhibition (Table 2 panel); format: biochemical
Procedure, shortened: as §2

[10] = tested on: β-D-glucuronidase (bovine liver); test: Glycosidase inhibition (Table 2 panel); format: biochemical
Procedure, shortened: as §2

[11] = tested on: β-D-glucosidase (almond); test: Glycosidase inhibition (Table 2 panel); format: biochemical
Procedure, shortened: as §2

[12] = tested on: α-L-rhamnosidase (P. decumbens); test: Glycosidase inhibition (Table 2 panel); format: biochemical
Procedure, shortened: as §2

[13] = molecular target: T6, β-D-glucosidase (bovine liver) (Bos taurus, UniProt F1MNT6); test: Glycosidase inhibition (Table 2 panel); format: biochemical
T6 sequence (F1MNT6 1-469): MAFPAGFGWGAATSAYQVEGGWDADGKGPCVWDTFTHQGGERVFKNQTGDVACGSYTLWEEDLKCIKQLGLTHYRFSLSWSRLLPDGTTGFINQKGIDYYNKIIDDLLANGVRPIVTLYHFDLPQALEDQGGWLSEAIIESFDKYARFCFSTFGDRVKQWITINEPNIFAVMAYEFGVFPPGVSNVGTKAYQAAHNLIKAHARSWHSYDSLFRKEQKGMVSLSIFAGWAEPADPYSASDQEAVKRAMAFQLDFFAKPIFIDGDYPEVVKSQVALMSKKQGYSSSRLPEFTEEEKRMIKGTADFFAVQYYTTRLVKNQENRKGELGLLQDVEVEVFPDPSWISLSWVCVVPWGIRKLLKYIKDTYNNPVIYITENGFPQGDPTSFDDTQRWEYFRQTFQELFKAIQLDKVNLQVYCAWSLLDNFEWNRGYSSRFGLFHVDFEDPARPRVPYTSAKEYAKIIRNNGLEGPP
Procedure, shortened: as §2

[14] = tested on: T7, α-D-galactosidase (coffee beans); test: Glycosidase inhibition (Table 2 panel); format: biochemical
T7 construct: purchased Sigma-Aldrich; host or cells: coffee beans
Procedure, shortened: as §2

[15] = tested on: MCF10A (non-tumour derived normal breast cell line); test: Cancer screening, MTT growth inhibition; format: cell-based; conditions: 72 h
[16] = Sample appearance on sample preparation in water; format: physicochemical; conditions: 1 mL of water was added to 1 mg solid

N-(3-Hydroxyphenyl)-1,4-dideoxy-1,4-imino-L-gulitol [meta 7]
inhibition % Amyloglucosidase A. niger ([1]; at 100 μM): ^cNI ^d(5.1%) | inhibition % Amyloglucosidase A. niger ([1]; at 1000 μM): ^aNI ^b(2.1%) | inhibition % α-D-Glucosidase Yeast ([2]; at 100 μM): ^cNI ^d(3.4%) | inhibition % α-D-Glucosidase Yeast ([2]; at 1000 μM): ^aNI ^b(4.3%) | inhibition % β-D-Glucuronidase E. coli ([3]; at 100 μM): ^cNI ^d(0.5%) | inhibition % β-D-Glucuronidase E. coli ([3]; at 1000 μM): ^aNI ^b(7.5%) | Percentage inhibition α-D-Glucosidase Yeast [4]: 19.5% | inhibition % α-D-Glucosidase Rat Intestinal Maltase ([5]; at 100 μM): ^cNI ^d(0%) | inhibition % α-D-Glucosidase Rat Intestinal Maltase ([5]; at 1000 μM): ^aNI ^b(7.2%) | inhibition % α-D-Mannosidase Jack Bean ([6]; at 100 μM): ^cNI ^d(0%) | inhibition % α-D-Mannosidase Jack Bean ([6]; at 1000 μM): ^aNI ^b(0%) | inhibition % α-D-Glucosidase Rice ([7]; at 100 μM): ^cNI ^d(0%) | inhibition % α-D-Glucosidase Rice ([7]; at 1000 μM): ^aNI ^b(5.0%) | inhibition % Trehalase Porcine Kidney ([8]; at 100 μM): ^cNI ^d(0%) | inhibition % Trehalase Porcine Kidney ([8]; at 1000 μM): ^aNI ^b(1.9%) | inhibition % β-D-Mannosidase Snail ([9]; at 100 μM): ^cNI ^d(0%) | inhibition % β-D-Mannosidase Snail ([9]; at 1000 μM): ^aNI ^b(0%) | inhibition % β-D-Glucuronidase Bovine Liver ([10]; at 100 μM): ^cNI ^d(1.2%) | inhibition % β-D-Glucuronidase Bovine Liver ([10]; at 1000 μM): ^aNI ^b(0%) | inhibition % β-D-Glucosidase Almond ([11]; at 100 μM): ^cNI ^d(0%) | inhibition % β-D-Glucosidase Almond ([11]; at 1000 μM): ^aNI ^b(9.6%) | inhibition % α-L-Rhamnosidase P. decumbens ([12]; at 100 μM): ^cNI ^d(3.8%) | inhibition % α-L-Rhamnosidase P. decumbens ([12]; at 1000 μM): ^aNI ^b(2.1%) | inhibition % β-D-Glucosidase Bovine Liver ([13]; at 100 μM): ^cNI ^d(0%) | inhibition % β-D-Glucosidase Bovine Liver ([13]; at 1000 μM): ^aNI ^b(13.6%) | inhibition % α-D-Galactosidase Coffee Beans ([14]; at 100 μM): ^cNI ^d(1.8%) | inhibition % α-D-Galactosidase Coffee Beans ([14]; at 1000 μM): ^aNI ^b(1.7%) | DOSE SCREEN percentage (%) cell growth inhibition MCF10A Breast (normal) ([15]; 25 µM of drug): 31 ± 16% | GI50 ([15]; read-out: DOSE RESPONSE GI50 MCF10A Breast (normal)): 43 ± 17 µM | Sample Appearance [16]: In solution
